According to ChEMBL document CHEMBL1212927, “Synthesis and structure-activity relationships of novel 8a-aza-8a-homoerythromycin A ketolides” (2010):
In brackets after ≈: the same amount, converted by molar mass.

How the values were obtained:
[1] = test system: Staphylococcus aureus; test: Antibacterial activity against inducible macrolide-lincosamide-streptogramin B-resistant Staphylococcus aureus B0538 by agar microdilution method; assay type: functional
[2] = test system: Staphylococcus aureus; test: Antibacterial activity against constitutive macrolide-lincosamide-streptogramin B-resistant Staphylococcus aureus B0330 by agar microdilution method; assay type: functional
[3] = test system: Staphylococcus aureus; test: Antibacterial activity against efflux-resistant Staphylococcus aureus B0331 by agar microdilution method; assay type: functional
[4] = test system: Streptococcus pneumoniae; test: Antibacterial activity against constitutive macrolide-lincosamide-streptogramin B-resistant Streptococcus pneumoniae B0627 by agar microdilution method; assay type: functional
[5] = test system: Streptococcus pneumoniae; test: Antibacterial activity against efflux-resistant Streptococcus pneumoniae B0326 by agar microdilution method; assay type: functional
[6] = test system: Streptococcus pyogenes; test: Antibacterial activity against inducible macrolide-lincosamide-streptogramin B-resistant Streptococcus pyogenes B0543 by agar microdilution method; assay type: functional
[7] = test system: Streptococcus pyogenes; test: Antibacterial activity against constitutive macrolide-lincosamide-streptogramin B-resistant Streptococcus pyogenes B0544 by agar microdilution method; assay type: functional
[8] = test system: Streptococcus pyogenes; test: Antibacterial activity against efflux-resistant Streptococcus pyogenes B0545 by agar microdilution method; assay type: functional
[9] = test system: Moraxella catarrhalis; test: Antibacterial activity against Moraxella catarrhalis B0324 by agar microdilution method; assay type: functional
[10] = test system: Haemophilus influenzae; test: Antibacterial activity against Haemophilus influenzae B0529 by agar microdilution method; assay type: functional
[11] = test system: Staphylococcus aureus; test: Antibacterial activity against erythromycin A-susceptible Staphylococcus aureus B0329 by agar microdilution method
[12] = test system: Streptococcus pneumoniae; test: Antibacterial activity against erythromycin-susceptible Streptococcus pneumoniae B0541 by agar microdilution method
[13] = test system: Streptococcus pyogenes; test: Antibacterial activity against erythromycin A-susceptible Streptococcus pyogenes B0542 by agar microdilution method

Compound | MIC [1] [µg/mL] | MIC [2] [µg/mL] | MIC [3] [µg/mL] | MIC [4] [µg/mL] | MIC [5] [µg/mL] | MIC [6] [µg/mL] | MIC [7] [µg/mL] | MIC [8] [µg/mL] | MIC [9] [µg/mL] | MIC [10] [µg/mL] | MIC [11] [µg/mL] | MIC [12] [µg/mL] | MIC [13] [µg/mL]
CC[C@H]1OC(=O)[C@H](C)C(=O)[C@H](C)[C@@H](O[C@@H]2O[C@H](C)C[C@H](N(C)C)[C@H]2O)[C@](C)(OCC(O)CN2CCN(c3cccc(C(F)(F)F)c3)CC2)C[C@@H](C)NC(=O)[C@H](C)[C@@H](O)[C@]1(C)O (mixture of isomers) | 4 | > 64 | 4 | 16 | 4 | 4 | 16 | 2 | 1 | 16 | 4 | 0.5 | ≤ 0.125
CC[C@H]1OC(=O)[C@H](C)C(=O)[C@H](C)[C@@H](O[C@@H]2O[C@H](C)C[C@H](N(C)C)[C@H]2O)[C@](C)(OCC(O)CNCCCCc2ccccc2)C[C@@H](C)NC(=O)[C@H](C)[C@@H](O)[C@]1(C)O (mixture of isomers) | 2 | > 64 | 2 | 1 | 4 | 0.5 | 8 | 0.5 | ≤ 0.125 | 8 | 2 | ≤ 0.125 | 0.25
CC[C@H]1OC(=O)[C@H](C)C(=O)[C@H](C)[C@@H](O[C@@H]2O[C@H](C)C[C@H](N(C)C)[C@H]2O)[C@](C)(OCC(O)CN[C@H](C)Cc2ccc(OC)cc2)C[C@@H](C)NC(=O)[C@H](C)[C@@H](O)[C@]1(C)O (mixture of isomers) | 2 | > 64 | 4 | 2 | 16 | 1 | 8 | 1 | 0.5 | 16 | 1 | ≤ 0.125 | 0.5
CC[C@H]1OC(=O)[C@H](C)C(=O)[C@H](C)[C@@H](O[C@@H]2O[C@H](C)C[C@H](N(C)C)[C@H]2O)[C@](C)(OCC2CO2)C[C@@H](C)NC(=O)[C@H](C)[C@@H](O)[C@]1(C)O (stereo partly drawn) | > 64 | > 64 | 16 (≈ 24.8 µM) | > 64 | 8 (≈ 12.4 µM) | > 64 | > 64 | 8 (≈ 12.4 µM) | 16 (≈ 24.8 µM) | 32 (≈ 49.6 µM) | 4 (≈ 6.2 µM) | 2 (≈ 3.1 µM) | 4 (≈ 6.2 µM)
CC[C@H]1OC(=O)[C@H](C)C(=O)[C@H](C)[C@@H](O[C@@H]2O[C@H](C)C[C@H](N(C)C)[C@H]2O)[C@](C)(OCC(O)CNCCCc2ccccc2)C[C@@H](C)NC(=O)[C@H](C)[C@@H](O)[C@]1(C)O (stereo partly drawn) | 8 (≈ 10.3 µM) | > 64 | 8 (≈ 10.3 µM) | 8 (≈ 10.3 µM) | 8 (≈ 10.3 µM) | 1 (≈ 1.28 µM) | 16 (≈ 20.5 µM) | 1 (≈ 1.28 µM) | 1 (≈ 1.28 µM) | 16 (≈ 20.5 µM) | 4 (≈ 5.13 µM) | 0.25 (≈ 0.321 µM) | 0.25 (≈ 0.321 µM)
CC[C@H]1OC(=O)[C@H](C)C(=O)[C@H](C)[C@@H](O[C@@H]2O[C@H](C)C[C@H](N(C)C)[C@H]2O)[C@](C)(OCC(O)CNCCc2cccnc2)C[C@@H](C)NC(=O)[C@H](C)[C@@H](O)[C@]1(C)O (stereo partly drawn) | 8 (≈ 10.4 µM) | > 64 | 4 (≈ 5.22 µM) | 2 (≈ 2.61 µM) | 8 (≈ 10.4 µM) | 4 (≈ 5.22 µM) | 32 (≈ 41.7 µM) | 2 (≈ 2.61 µM) | 1 (≈ 1.3 µM) | 8 (≈ 10.4 µM) | 4 (≈ 5.22 µM) | 0.5 (≈ 0.652 µM) | 0.25 (≈ 0.326 µM)
CC[C@H]1OC(=O)[C@H](C)C(=O)[C@H](C)[C@@H](O[C@@H]2O[C@H](C)C[C@H](N(C)C)[C@H]2O)[C@](C)(OCC(O)CN[C@H](C)Cc2ccc([N+](=O)[O-])cc2)C[C@@H](C)NC(=O)[C@H](C)[C@@H](O)[C@]1(C)O (mixture of isomers) | 2 | > 64 | 2 | 2 | 1 | 0.5 | 4 | 0.5 | 0.25 | 1 | 0.5 | ≤ 0.125 | ≤ 0.125
CC[C@H]1OC(=O)[C@H](C)C(=O)[C@H](C)[C@@H](O[C@@H]2O[C@H](C)C[C@H](N(C)C)[C@H]2O)[C@](C)(OCC(O)CNCc2ccc3ncccc3c2)C[C@@H](C)NC(=O)[C@H](C)[C@@H](O)[C@]1(C)O (stereo partly drawn) | 0.5 (≈ 0.623 µM) | > 64 | 0.25 (≈ 0.311 µM) | 4 (≈ 4.98 µM) | 1 (≈ 1.25 µM) | 2 (≈ 2.49 µM) | 8 (≈ 9.96 µM) | 2 (≈ 2.49 µM) | 1 (≈ 1.25 µM) | 1 (≈ 1.25 µM) | 0.5 (≈ 0.623 µM) | ≤ 0.125 | ≤ 0.125
CC[C@H]1OC(=O)[C@H](C)C(=O)[C@H](C)[C@@H](O[C@@H]2O[C@H](C)C[C@H](N(C)C)[C@H]2O)[C@](C)(OCC(O)CN2CCN(c3ccc(F)cc3)CC2)C[C@@H](C)NC(=O)[C@H](C)[C@@H](O)[C@]1(C)O (stereo partly drawn) | 16 (≈ 19.4 µM) | > 64 | 16 (≈ 19.4 µM) | 32 (≈ 38.8 µM) | 16 (≈ 19.4 µM) | 4 (≈ 4.85 µM) | > 64 | 4 (≈ 4.85 µM) | 4 (≈ 4.85 µM) | 32 (≈ 38.8 µM) | 4 (≈ 4.85 µM) | 0.5 (≈ 0.606 µM) | ≤ 0.125
CC[C@H]1OC(=O)[C@H](C)C(=O)[C@H](C)[C@@H](O[C@@H]2O[C@H](C)C[C@H](N(C)C)[C@H]2O)[C@](C)(OCC(O)CNc2cnc3ccccc3c2)C[C@@H](C)NC(=O)[C@H](C)[C@@H](O)[C@]1(C)O (stereo partly drawn) | 2 (≈ 2.53 µM) | > 64 | 1 (≈ 1.27 µM) | 8 (≈ 10.1 µM) | 2 (≈ 2.53 µM) | 4 (≈ 5.07 µM) | 16 (≈ 20.3 µM) | 8 (≈ 10.1 µM) | 0.5 (≈ 0.634 µM) | 8 (≈ 10.1 µM) | 2 (≈ 2.53 µM) | ≤ 0.125 | ≤ 0.125
CC[C@H]1OC(=O)[C@H](C)C(=O)[C@H](C)[C@@H](O[C@@H]2O[C@H](C)C[C@H](N(C)C)[C@H]2O)[C@](C)(OC[C@H](O)CNCCNc2ccc3ncccc3c2)C[C@@H](C)NC(=O)[C@H](C)[C@@H](O)[C@]1(C)O | 0.25 (≈ 0.3 µM) | > 64 | 0.5 (≈ 0.601 µM) | 0.5 (≈ 0.601 µM) | 0.25 (≈ 0.3 µM) | 0.5 (≈ 0.601 µM) | 4 (≈ 4.81 µM) | 0.5 (≈ 0.601 µM) | 0.5 (≈ 0.601 µM) | 0.5 (≈ 0.601 µM) | ≤ 0.125 | ≤ 0.125 | ≤ 0.125
CC[C@H]1OC(=O)[C@H](C)C(=O)[C@H](C)[C@@H](O[C@@H]2O[C@H](C)C[C@H](N(C)C)[C@H]2O)[C@](C)(OCC(O)CNCCCc2cccnc2)C[C@@H](C)NC(=O)[C@H](C)[C@@H](O)[C@]1(C)O (stereo partly drawn) | 4 (≈ 5.12 µM) | > 64 | 4 (≈ 5.12 µM) | 1 (≈ 1.28 µM) | 4 (≈ 5.12 µM) | 0.5 (≈ 0.64 µM) | 16 (≈ 20.5 µM) | 1 (≈ 1.28 µM) | 0.5 (≈ 0.64 µM) | 16 (≈ 20.5 µM) | 2 (≈ 2.56 µM) | 0.25 (≈ 0.32 µM) | ≤ 0.125
CC[C@H]1OC(=O)[C@H](C)C(=O)[C@H](C)[C@@H](O[C@@H]2O[C@H](C)C[C@H](N(C)C)[C@H]2O)[C@](C)(OCC(O)CNCCCCc2cccnc2)C[C@@H](C)NC(=O)[C@H](C)[C@@H](O)[C@]1(C)O (stereo partly drawn) | 1 (≈ 1.26 µM) | > 64 | 1 (≈ 1.26 µM) | 0.5 (≈ 0.629 µM) | 1 (≈ 1.26 µM) | ≤ 0.125 | 4 (≈ 5.03 µM) | 0.5 (≈ 0.629 µM) | ≤ 0.125 | 2 (≈ 2.52 µM) | 0.5 (≈ 0.629 µM) | ≤ 0.125 | ≤ 0.125
CC[C@H]1OC(=O)[C@H](C)C(=O)[C@H](C)[C@@H](O[C@@H]2O[C@H](C)C[C@H]([N+](C)(C)[O-])[C@H]2O)[C@](C)(OCC2CO2)C[C@@H](C)NC(=O)[C@H](C)[C@@H](O)[C@]1(C)O (stereo partly drawn) | > 64 | > 64 | > 64 | > 64 | > 64 | > 64 | > 64 | > 64 | > 64 | > 64 | > 64 | > 64 | > 64
CC[C@H]1OC(=O)[C@H](C)C(=O)[C@H](C)[C@@H](O[C@@H]2O[C@H](C)C[C@H](N(C)C)[C@H]2O)[C@](C)(OCC(O)CN2CCN(c3ccc([N+](=O)[O-])cc3)CC2)C[C@@H](C)NC(=O)[C@H](C)[C@@H](O)[C@]1(C)O (stereo partly drawn) | 2 (≈ 2.35 µM) | > 64 | 2 (≈ 2.35 µM) | 4 (≈ 4.69 µM) | 2 (≈ 2.35 µM) | 2 (≈ 2.35 µM) | 8 (≈ 9.39 µM) | 1 (≈ 1.17 µM) | 0.5 (≈ 0.587 µM) | 8 (≈ 9.39 µM) | 1 (≈ 1.17 µM) | ≤ 0.125 | 0.25 (≈ 0.293 µM)
CC[C@H]1OC(=O)[C@H](C)C(=O)[C@H](C)[C@@H](O[C@@H]2O[C@H](C)C[C@H](N(C)C)[C@H]2O)[C@](C)(OCC(O)CNCCCCc2ccccn2)C[C@@H](C)NC(=O)[C@H](C)[C@@H](O)[C@]1(C)O (stereo partly drawn) | 4 (≈ 5.03 µM) | > 64 | 2 (≈ 2.52 µM) | 2 (≈ 2.52 µM) | 4 (≈ 5.03 µM) | 0.5 (≈ 0.629 µM) | 32 (≈ 40.3 µM) | 1 (≈ 1.26 µM) | ≤ 0.125 | 4 (≈ 5.03 µM) | 1 (≈ 1.26 µM) | ≤ 0.125 | 0.25 (≈ 0.314 µM)
